According to US20220235065A1 (Epizyme, Inc., priority 2016, published 2022):

How the values were obtained:
EHMT1 = biological target: T1, EHMT1 (Homo sapiens, UniProt Q9H9B1); assay: EHMT1 PEP (EHMT1 peptide enzyme assay); type: biochemical; details: peptide substrate enzyme assay
T1 sequence (Q9H9B1 1-1298): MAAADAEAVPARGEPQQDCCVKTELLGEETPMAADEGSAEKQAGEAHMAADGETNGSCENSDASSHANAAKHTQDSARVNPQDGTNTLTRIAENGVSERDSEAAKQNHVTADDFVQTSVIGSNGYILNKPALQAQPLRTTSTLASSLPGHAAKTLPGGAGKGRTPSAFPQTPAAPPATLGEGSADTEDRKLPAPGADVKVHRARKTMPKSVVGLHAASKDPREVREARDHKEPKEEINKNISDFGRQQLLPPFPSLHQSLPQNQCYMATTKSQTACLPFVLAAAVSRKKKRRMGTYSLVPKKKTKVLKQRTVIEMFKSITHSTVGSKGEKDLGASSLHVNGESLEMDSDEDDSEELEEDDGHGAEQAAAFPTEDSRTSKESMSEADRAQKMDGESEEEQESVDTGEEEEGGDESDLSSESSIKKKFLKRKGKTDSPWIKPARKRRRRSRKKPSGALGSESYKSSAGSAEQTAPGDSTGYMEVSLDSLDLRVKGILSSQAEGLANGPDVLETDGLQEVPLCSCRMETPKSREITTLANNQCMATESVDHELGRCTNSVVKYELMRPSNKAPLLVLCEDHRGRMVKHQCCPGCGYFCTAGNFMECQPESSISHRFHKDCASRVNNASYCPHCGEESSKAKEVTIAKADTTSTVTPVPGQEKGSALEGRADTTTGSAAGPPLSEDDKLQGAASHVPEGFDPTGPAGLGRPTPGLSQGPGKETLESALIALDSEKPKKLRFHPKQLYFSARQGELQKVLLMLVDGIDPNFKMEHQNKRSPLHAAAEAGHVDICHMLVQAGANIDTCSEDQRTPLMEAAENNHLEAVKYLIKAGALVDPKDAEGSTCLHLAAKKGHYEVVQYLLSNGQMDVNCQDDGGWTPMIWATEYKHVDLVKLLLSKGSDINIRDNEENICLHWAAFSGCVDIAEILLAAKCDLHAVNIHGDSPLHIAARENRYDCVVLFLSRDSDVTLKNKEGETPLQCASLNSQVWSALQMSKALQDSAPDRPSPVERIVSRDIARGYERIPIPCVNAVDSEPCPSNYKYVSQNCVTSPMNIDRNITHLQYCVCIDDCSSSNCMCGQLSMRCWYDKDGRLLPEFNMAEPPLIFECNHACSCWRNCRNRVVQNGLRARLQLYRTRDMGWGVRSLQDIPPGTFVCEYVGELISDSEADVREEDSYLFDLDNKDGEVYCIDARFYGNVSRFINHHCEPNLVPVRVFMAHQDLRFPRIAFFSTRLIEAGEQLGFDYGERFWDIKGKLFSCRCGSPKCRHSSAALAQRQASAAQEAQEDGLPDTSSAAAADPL

[1] = biological target: T2, recombinant purified human EHMT2 913-1193 (Homo sapiens, UniProt Q96KQ7); assay: EHMT2 enzyme assay on histone peptide substrate (3H-SAM Flashplate); type: biochemical; details: read-out: EHMT2 PEP (IC50 μM)
T2 construct: Recombinant purified human EHMT2 913-1193 (55 μM) synthesized by Viva was used for all experiments; purchased Viva
T2 sequence (Q96KQ7 913-1193): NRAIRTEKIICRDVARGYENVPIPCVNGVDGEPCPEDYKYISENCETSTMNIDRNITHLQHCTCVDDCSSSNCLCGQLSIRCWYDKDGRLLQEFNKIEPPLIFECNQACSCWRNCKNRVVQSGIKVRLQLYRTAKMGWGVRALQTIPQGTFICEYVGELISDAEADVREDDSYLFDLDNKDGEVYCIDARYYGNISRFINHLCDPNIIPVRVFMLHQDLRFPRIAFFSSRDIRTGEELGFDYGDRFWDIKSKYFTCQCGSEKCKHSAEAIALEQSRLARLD
Method: Recombinant purified human EHMT2 913-1193 (55 μM) synthesized by Viva was used for all experiments. Biotinylated histone peptides were synthesized by Biopeptide and HPLC-purified to >95% purity. Streptavidin Flashplates and seals were purchased from PerkinElmer and 384 Well V-bottom Polypropylene Plates were from Greiner. ^3H-labeled S-adenosylmethionine (3H-SAM) was obtained from American Radiolabeled Chemicals with a specific activity of 80 Ci/mmol. Unlabeled SAM and S-adenosylhomocysteine (SAH) were obtained from American Radiolabeled Chemicals and Sigma-Aldrich respectively. Flashplates were washed in a Biotek ELx-405 with 0.1% Tween. 384-well Flashplates and 96-well filter binding plates were read on a TopCount microplate reader (PerkinElmer). Compound serial dilutions were performed on a Freedom EVO (Tecan) and spotted into assay plates using a Thermo Scientific Matrix PlateMate (Thermo Scientific). Reagent cocktails were added by Multidrop Combi (Thermo Scientific).
General Procedure for EHMT2 Enzyme Assay on Histone Peptide Substrate.
10-point curves of test compounds were made on a Freedom EVO (Tecan) using serial 3-fold dilutions in DMSO, beginning at 2.5 mM (final top concentration of compound was 50 μM and the DMSO was 2%). A 1 μL aliquot of the inhibitor dilution series was spotted in a polypropylene 384-well V-bottom plate (Greiner) using a Thermo Scientific Matrix PlateMate (Thermo Scientific). The 100% inhibition control consisted of 1 mM final concentration of the product inhibitor S-adenosylhomocysteine (SAH, Sigma-Aldrich). Compounds were incubated for 30 minutes with 40 μL per well of 0.031 nM EHMT2 (recombinant purified human EHMT2 913-1193, Viva) in 1× assay buffer (20 mM Bicine [pH 7.5], 0.002% Tween 20, 0.005% Bovine Skin Gelatin and 1 mM TCEP). 10 μL per well of substrate mix comprising assay buffer, ^3H-SAM (3H-labeled S-adenosylmethionine, American Radiolabeled Chemicals, specific activity of 80 Ci/mmol), unlabeled SAM (American Radiolabeled Chemicals), and peptide representing histone H3 residues 1-15 containing C-terminal biotin (appended to a C-terminal amide-capped lysine, synthesized by Biopeptide and HPLC-purified to greater than 95% purity) were added to initiate the reaction (both substrates were present in the final reaction mixture at their respective Km values, an assay format referred to as “balanced conditions”). Reactions were incubated for 60 minutes at room temperature and quenched with 10 μL per well of 400 μM unlabeled SAM, then transferred to a 384-well streptavidin Flashplate (PerkinElmer) and washed in a Biotek ELx-405 well washer with 0.1% Tween after 60 minutes. 384-well Flashplates were read on a TopCount microplate reader (PerkinElmer).
IC50 curves were generated using triplicate wells per concentration of compound. The IC50 is the concentration of compound at which measured methylation is inhibited by 50% as interpolated from the dose response curves. IC50 values were calculated using a non-linear regression (variable slope-four parameter fit model) with by the following formula
where Top is fixed at 100% and Bottom is fixed to 0%, [I]=concentration of inhibitor, IC50=half maximal inhibitory concentration and n=Hill Slope.

CNc1cc(C)nc(Nc2ccc(Cl)c(C(=O)Nc3ncco3)c2)n1 [Compound 249]
IC50 (EHMT1): 0.1 to 1 µM

CNc1cc(C)nc(Nc2ccc(C)c(C(=O)Nc3cc(C#N)ccn3)c2)n1 [Compound 303]
IC50 [1]: 1 to 10 µM

CNCc1cnn(-c2cc(Nc3nc(C)cc(NC)n3)ccc2C#N)c1 [Compound 332]
IC50 [1]: < 0.1 µM
IC50 (EHMT1): < 0.1 µM

CNc1cc(C)nc(Nc2ccc(OC)c(-n3cc([C@@H]4CCCN4)cn3)c2)n1 [Compound 333]
IC50 [1]: < 0.1 µM
IC50 (EHMT1): < 0.1 µM

CNc1cc(C)nc(Nc2ccc(OC)c(-n3cc([C@H]4CCCN4)cn3)c2)n1 [Compound 334]
IC50 [1]: < 0.1 µM
IC50 (EHMT1): < 0.1 µM
